Test results reported in PMC11359197 (Viruses, 2024).

Each molecule was assayed against released M^pro-GST (Severe acute respiratory syndrome coronavirus 2, UniProt P0DTD1, Q3569E).
Assay type: cell-based, SARS-CoV-2

| SMILES | GFP signal (GFP degradation by the released M^pro-GST) | GFP signal versus DMSO controls, pilot screen |
| --- | --- | --- |
| COC(=O)N[C@H](C(=O)N[C@@H](Cc1ccccc1)[C@@H](O)CN(Cc1ccc(-c2ccccn2)cc1)NC(=O)[C@@H](NC(=O)OC)C(C)(C)C)C(C)(C)C [atazanavir] | background levels | – |
| CC(NC(=O)[C@H](Cc1ccccc1)NC(=O)OCc1ccccc1)C(=O)CF (some centres unmarked) [Z-FA-FMK] | consistently suppressed the GFP degradation | higher GFP signals |
| Cc1cccc(C)c1OCC(=O)N[C@@H](Cc1ccccc1)[C@@H](O)C[C@H](Cc1ccccc1)NC(=O)[C@H](C(C)C)N1CCCNC1=O [lopinavir] | background levels | – |
| CC(C)C[C@H](NC(=O)[C@H]1O[C@@H]1C(=O)O)C(=O)NCCCCN=C(N)N [E-64] | background levels | – |
| CC(C)[C@H](O)C(=O)N[C@@H](C)C(=O)N[C@@H]1C(=O)N(C)CCc2ccccc21 [LY450139] | – | higher GFP signals |
| CC(C)(C)NC(=O)N[C@H](C(=O)N1C[C@H]2[C@@H]([C@H]1C(=O)NC(CC1CCC1)C(=O)C(N)=O)C2(C)C)C(C)(C)C (some centres unmarked) [boceprevir, Boceprevir] | consistently suppressed the GFP degradation | higher GFP signals |
